One series deals with rat hepatocytes. The series can be described thus: Inhibition of Gluconeogenesis in Rat Hepatocytes. It counts as cell-based. To be noted: isolated rat hepatocytes, 10 mM lactate, 1 mM pyruvate, 1 hour, read-out: IC50 Glucose Production. On the procedure: Hepatocytes (75 mg wet weight/ml) were incubated in 1 ml Krebs-bicarbonate buffer containing 10 mM Lactate, 1 mM pyruvate, 1 mg/ml BSA, and test compound concentrations from 1 to 500 μM. […] After 1 hour, an aliquot (0.25 ml) was removed, transferred to an Eppendorf tube and centrifuged. 50 μl of supernatant was then assayed for glucose content using a Sigma Glucose Oxidase kit as per the manufacturer's instructions.

In the next series the target is T1, rat liver FBPase (Rattus norvegicus, UniProt P19112).
T1 construct: made in house; host or cells: E. coli BL21
T1 sequence (P19112 2-363 limits assumed): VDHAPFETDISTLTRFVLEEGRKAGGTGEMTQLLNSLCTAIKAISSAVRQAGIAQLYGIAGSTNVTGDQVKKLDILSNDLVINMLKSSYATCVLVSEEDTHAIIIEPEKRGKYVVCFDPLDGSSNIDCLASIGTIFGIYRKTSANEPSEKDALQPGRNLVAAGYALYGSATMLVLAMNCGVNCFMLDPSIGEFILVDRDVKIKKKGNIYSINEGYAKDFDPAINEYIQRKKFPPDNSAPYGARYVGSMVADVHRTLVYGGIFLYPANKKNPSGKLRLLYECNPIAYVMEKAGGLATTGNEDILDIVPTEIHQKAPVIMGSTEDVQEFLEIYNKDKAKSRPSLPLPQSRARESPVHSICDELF
The series can be described thus: Inhibition of Rat Liver FBPase. Type of series: biochemical. To be noted: read-out: IC50 (rlFBPase). The protocol: E. coli strain BL21 transformed with a human liver FBPase-encoding plasmid was obtained from Dr. M. R. El-Maghrabi at the State University of New York at Stony Brook. The enzyme was typically purified from 10 liters of recombinant E. coli culture as described (M. Gidh-Jain et al., 1994, The Journal of Biological Chemistry 269, pp 27732-27738). Enzymatic activity was measured spectrophotometrically in reactions that coupled the formation of product (fructose 6-phosphate) to the reduction of dimethylthiazoldiphenyltetrazolium bromide (MTT) via NADP^+ and phenazine methosulfate (PMS), using phosphoglucose isomerase and glucose 6-phosphate dehydrogenase as the coupling enzymes. Reaction mixtures (200 μl) were made up in 96-well microtitre plates, and consisted of 50 mM Tris-HCl, pH 7.4, 100 mM KCl, 5 mM EGTA, 2 mM MgCl2, 0.2 mM NADP, 1 mg/ml BSA, 1 mM MTT, 0.6 mM PMS, 1 unit/ml phosphoglucose isomerase, 2 units/ml glucose 6-phosphate dehydrogenase, and 0.150 mM substrate (fructose 1,6-bisphosphate). Inhibitor concentrations were varied from 0.01 μM to 10 μM. Reactions were started by the addition of 0.002 units of pure hlFBPase, and were monitored for 7 minutes at 590 nm in a Molecular Devices Plate Reader (37° C.).
E. coli strain BL21 transformed with a rat liver FBPase-encoding plasmid was obtained from Dr. M. R. El-Maghrabi at the State University of New York at Stony Brook. Recombinant FBPase was purified as described (El-Maghrabi, M. R., and Pilkis, S. J. (1991) BioChem. Biophys. Res. Commun. 176, 137-144) The enzyme assay was identical to that described above for human liver FBPase.

A further series concerns the target T2, human liver FBPase (Homo sapiens, UniProt P09467).
T2 construct: made in house; host or cells: E. coli BL21
T2 sequence (P09467 2-338 limits assumed): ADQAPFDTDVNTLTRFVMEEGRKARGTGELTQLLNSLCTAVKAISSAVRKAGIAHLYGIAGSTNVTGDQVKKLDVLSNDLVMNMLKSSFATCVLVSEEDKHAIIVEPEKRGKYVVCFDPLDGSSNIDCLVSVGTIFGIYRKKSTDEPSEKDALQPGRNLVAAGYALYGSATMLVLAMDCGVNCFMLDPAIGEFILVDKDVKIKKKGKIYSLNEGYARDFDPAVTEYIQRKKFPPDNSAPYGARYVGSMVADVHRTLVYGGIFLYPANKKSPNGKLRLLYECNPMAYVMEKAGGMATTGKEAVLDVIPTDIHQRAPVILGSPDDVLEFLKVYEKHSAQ
The series can be described thus: Inhibition of Human Liver FBPase. It counts as biochemical. To be noted: read-out: IC50 (hlFBPase). On the procedure:
[…] […] Enzymatic activity was measured spectrophotometrically in reactions that coupled the formation of product (fructose 6-phosphate) to the reduction of dimethylthiazoldiphenyltetrazolium bromide (MTT) via NADP^+ and phenazine methosulfate (PMS), using phosphoglucose isomerase and glucose 6-phosphate dehydrogenase as the coupling enzymes. […] Inhibitor concentrations were varied from 0.01 μM to 10 μM. Reactions were started by the addition of 0.002 units of pure hlFBPase, and were monitored for 7 minutes at 590 nm in a Molecular Devices Plate Reader (37° C.).

The test system of series [1] is Zucker Diabetic Fatty (ZDF rat). The experiment in a line: Acute Oral Efficacy in the ZDF Rat. It counts as in vivo. To be noted: for Blood Glucose, T6h: 6 h after 60 mg/kg oral; for Blood Glucose, % Change: baseline to 6 h, 60 mg/kg oral; for Blood Glucose, Tbaseline: baseline, 60 mg/kg oral group. On the procedure: Methods: ZDF rats were purchased from Genetics Inc (Indianapolis, Ind.) at 8 weeks of age. Animals were maintained under standard vivarium conditions and provided with Purina 5008 chow and water ad libitum. At 10-12 weeks of age, rats with blood glucose levels>500 mg/dl were selected and dosed orally either with vehicle (PEG 400), or prodrug (60 mg/kg). Blood glucose levels were monitored at regular intervals for 6 hours following dosing. Blood samples were taken from tail vein nicks and analyzed by means of a HemoCue glucose analyzer (Hemocue, Mission Viejo, Calif.). Statistical analysis was performed using the Student's t test. Means±standard error of the means are shown.

Series [2] has as its system Human Liver Phosphoramidase. The experiment in a line: Structure Activity Relationship of Human Liver Phosphoramidase (human liver homogenate). It counts as in vitro ADME. To be noted: pH 7.4. On the procedure: Human liver, purchased from the Anatomic Gift Foundation (Laurel, Md.), was homogenized in Krebs-bicarbonate buffer and clarified by a slow-speed centrifugation. Prodrug metabolism was evaluated in reaction mixtures containing human liver homogenate (4 mgs protein), 50 mM Tris-HCl, pH 7.4, 10 mM MgCl2, and 10 mM dithiothreitol. At various time intervals over the course of 2 hours, aliquots were removed from the reaction mixtures and deproteinated by addition of methanol to 60%. Following clarification by centrifugation, metabolites were analyzed by reverse phase HPLC with use of a Beckman Ultrasphere ODS column (4.6×150 mm) equipped with an Alltech All-Guard column. The column was equilibrated with 20 mM potassium phosphate, pH 6.2 and eluted with a linear gradient of 0-60% acetonitrile over 20 minutes at a flow rate of 1.5 mL/min and at a temperature of 40° C. UV absorbance was monitored at 300 nm. Most of the prodrugs evaluated were metabolized via a non-rate limiting, esterase-catalyzed step to their monophosphoramidate form within 5 minutes of incubation. The rate of phosphonic acid appearance was therefore essentially a reflection of the rate of the final […] cleavage step. Results for representative prodrugs for which the esterase-catalyzed step was non-rate limiting are shown below: […]

Structures are written as SMILES. Where two headings read alike, the source gives them in different places.

As usually defined, the IC50 is the point on the concentration scale where inhibition reaches its midpoint. Broadly, the melting point is the temperature, or range, at which the solid turns liquid.

On to `Cc1nc(-c2ccc(P(=O)(O)O)o2)c(CC(C)C)s1` [Compound 3.2, 2-Methyl-5-isobutyl-4-[2-(5-phosphono)furanyl]thiazole], for which the IC50 in the series on rat hepatocytes (Hepatocyte) was 26 µM; on rat liver FBPase, 2.5 µM.
Regarding `CCCc1oc(N)nc1-c1ccc(P(=O)(O)O)o1` [Compound 10.2, 2-Amino-5-propyl-4-[2-(5-phosphono)furanyl]oxazole], the IC50 turned out to be 16 µM in the series on rat hepatocytes (Hepatocyte) and 2.5 µM at rat liver FBPase.
In the case of `CCCc1cnc(N)nc1-c1ccc(P(=O)(O)O)o1` [Compound 16.1, 2-amino-5-propyl-4-[2-(5-phosphono)furanyl]pyrimidine], the melting point fell in the range of 258 to 259 °C. In the series on rat hepatocytes (Hepatocyte), the IC50 turned out to be 10 µM. In addition, on rat liver FBPase, the half-inhibitory concentration (IC50) is 1.8 µM. Moreover, the half-inhibitory concentration (IC50) on human liver FBPase stood at 0.06 µM.
For the compound `CCc1sc(N)nc1C(=O)OCP(=O)(O)O` [Compound 18.3, 2-amino-5-ethyl-4-phosphonomethoxycarbonylthiazole], the concentration for half-maximal inhibition (IC50) came out at 0.49 µM at rat liver FBPase and 0.05 µM at human liver FBPase.
As to `CC(C)c1sc(N)nc1C(=O)OCP(=O)(O)O` [Compound 18.20, 2-Amino-5-isopropyl-4-phosphonomethoxycarbonylthiazole], the IC50 at rat liver FBPase was 0.28 µM; on human liver FBPase it was 0.039 µM.
As to `CCc1c(SC#N)cc(OCP(=O)(O)O)c2nc(N)sc12` [Compound 34.1, 2-amino-7-ethyl-6-thiocyano-4-phosphonomethoxybenzothiazole], the IC50 on rat liver FBPase turned out to be 0.16 µM; at human liver FBPase, 0.022 µM.
`CC(C)Cc1sc(N)nc1-c1ccc(P(=O)(N[C@@H](C)C(=O)OCc2ccccc2)N[C@@H](C)C(=O)OCc2ccccc2)o1` [Compound 50.2, 2-Amino-5-isobutyl-4-[2-(5-N,N-bis(L-alanine acid dibenzyl ester)phosphonoamido)furanyl]thiazole]: the half-maximal inhibitory concentration (IC50) with rat hepatocytes came out at 2.1 µM. In series [1], the “Blood Glucose, T6h” value came out at 415 ± 15 mg/dL; the “Blood Glucose, % Change” value is −30%; the “Blood Glucose, Tbaseline” value was 591 ± 35 mg/dL.
In the case of `CCOC(=O)CNP(=O)(NCC(=O)OCC)c1ccc(-c2nc(N)sc2CC(C)C)o1` [Compound 50.8], in series [2], the “Phosphoramidase Activity (Rate of 3.1 or 3.58 production, nmoles/mn/mg liver protein)” value (shortened to “Phosphoramidase Activity”) is 0.019 nmoles/mn/mg liver protein.
On to `CCOC(=O)C(C)(C)NP(=O)(NC(C)(C)C(=O)OCC)c1ccc(-c2nc(N)sc2CC(C)C)o1` [Compound 50.9], for which, in the series with rat hepatocytes, the half-maximal inhibitory concentration (IC50) stood at 2.2 µM. Further, in series [1], the “Blood Glucose, T6h” value worked out at 410 ± 18 mg/dL; the “Blood Glucose, % Change” value is reported as −32%; the “Blood Glucose, Tbaseline” value is 602 ± 26 mg/dL.
As for `CCOC(=O)CN(C)P(=O)(c1ccc(-c2nc(N)sc2CC(C)C)o1)N(C)CC(=O)OCC` [Compound 50.10, 2-Amino-5-isobutyl-4-{2-[5-(N,N′-bis(ethoxycarbonylmethyl)-N,N′-dimethylphosphonamido)]furanyl}thiazole], in series [2], the “Phosphoramidase Activity” value was 0.005 nmoles/mn/mg liver protein.
In the case of `COC(=O)[C@H](CC(C)C)NP(=O)(N[C@@H](CC(C)C)C(=O)OC)c1ccc(-c2nc(N)sc2CC(C)C)o1` [Compound 50.12, 2-Amino-5-isobutyl-4-{2-[5-(N,N′-bis((S)-1-methoxycarbonyl-3-methyl)butyl)phosphonamido]furanyl}thiazole], the “Phosphoramidase Activity” value in series [2] is recorded as 0.022 nmoles/mn/mg liver protein.
For `CCOC(=O)[C@H](Cc1ccccc1)NP(=O)(N[C@@H](Cc1ccccc1)C(=O)OCC)c1ccc(-c2nc(N)sc2CC(C)C)o1` [Compound 50.19, 2-Amino-5-isobutyl-4-{2-[5-(N,N′-bis((S)-1-ethoxycarbonyl-2-phenyl)ethyl)phosphonamido]furanyl}thiazole], in series [2], the “Phosphoramidase Activity” value is 0.029 nmoles/mn/mg liver protein.
The same measure, in the same setting: under `CCCSc1sc(N)nc1-c1ccc(P(=O)(NC(C)C(=O)OC(C)C)NC(C)C(=O)OC(C)C)o1` (stereo not drawn) [Compound 50.20, 2-Amino-5-propylthio-4-{2-[5-(N,N′-(1-methyl-ethoxycarbonyl)ethyl)phosphonamido]furanyl}thiazole] stands 0.085 nmoles/mn/mg liver protein; under `CCCSc1sc(N)nc1-c1ccc(P(=O)(N[C@@H](COC(C)(C)C)C(=O)OC)N[C@@H](COC(C)(C)C)C(=O)OC)o1` [Compound 52.8, 2-Amino-5-propylthio-4-{2-[5-(N,N′-bis(S)-1-methoxycarbonyl-2-(t-butoxy)ethyl)phosphonamido]furanyl}thiazole], 0.025 nmoles/mn/mg liver protein; under `CCCSc1sc(N)nc1-c1ccc(P(=O)(NC2(C(=O)OCC)CCCC2)NC2(C(=O)OCC)CCCC2)o1` [Compound 52.12, 2-Amino-propylthio-4-[2-{5-(N,N′-bis(1-ethoxycarbonyl)cyclopentyl)phosphonamido}furanyl]thiazole], 0.032 nmoles/mn/mg liver protein.
As to `CCCSc1sc(N)nc1-c1ccc(P(=O)(N[C@@H](CCC)C(=O)OCC)N[C@@H](CCC)C(=O)OCC)o1` [Compound 52.16], the “Phosphoramidase Activity” value in series [2] was 0.033 nmoles/mn/mg liver protein.

For the origin of these results see patent publication US6965033B2, “Bisamidate phosphonate prodrugs” (Metabasis Therapeutics, Inc., priority 1999, dated 2005).
